Among the test systems are DMS 114 small cell lung; LXFL 529 NSCLC; DLD-1 colon; SN12K1 renal; P388/ADR leukemia; M19-MEL melanoma; P388 leukemia.
Assay in all cases: NCI tumour cell line growth inhibition, 48 h

The source of these data is PubChem BioAssay (NCI).

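Assay format: 96-well plates, 48-hour exposure. TGI denotes the concentration required for complete inhibition of growth.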

As to `CC(C(=O)OCc1ccccc1)N(Cc1ccccc1)Cc1ccccc1` (centres undefined), the TGI in the assay with DMS 114 small cell lung, with LXFL 529 NSCLC and with DLD-1 colon was more than 100 µM throughout.

For the molecule `COc1ccccc1OCC(COC(=O)Nc1ccccc1)OC(=O)Nc1ccccc1` (centres undefined), the TGI with DMS 114 small cell lung, with LXFL 529 NSCLC and in the assay with DLD-1 colon was more than 100 µM each time.

In the case of `C#CC[C@@]12CC(=O)C[C@@H]1CCC1(C2)OCCO1` (tested in a mixture with another compound), the TGI with DLD-1 colon was more than 100 µM; in the assay with SN12K1 renal, more than 100 µM; in the assay with P388/ADR leukemia, more than 75 µM; with M19-MEL melanoma, more than 100 µM; in the assay with P388 leukemia, more than 59.7 µM.

Take `O=C(NNC(=S)Nc1ccccc1)c1nsc2ccccc12`: the values for the TGI in the assay on DMS 114 small cell lung, in the assay on LXFL 529 NSCLC and in the assay on M19-MEL melanoma were 70 µM, more than 100 µM and more than 100 µM, respectively.

`O=C(O)CCC(=O)OCN1C(=O)C2C3C=CC(C2C1=O)C1C2C(=O)N(COC(=O)CCC(=O)O)C(=O)C2C31` (centres undefined): the TGI was more than 67.9 µM with DMS 114 small cell lung, more than 100 µM in the assay on LXFL 529 NSCLC, more than 100 µM in the assay with DLD-1 colon and more than 100 µM in the assay on M19-MEL melanoma.

Regarding `O=C(CCN1CCOCC1)/C(=C/c1ccccc1)c1ccccc1`, the TGI with DMS 114 small cell lung was determined as 12 µM; in the assay with DLD-1 colon, 4.04 µM; in the assay with SN12K1 renal, 10.9 µM; with P388/ADR leukemia, 3.99 µM; in the assay with M19-MEL melanoma, 14.1 µM; in the assay on P388 leukemia, 12.4 µM.
